Experimental data as given in patent publication US9670214B2, “Small molecule myristate inhibitors of Bcr-abl and methods of use” (DANA-FARBER CANCER INSTITUTE, INC., priority 2007, dated 2017).

Tests used:
[1] = system: Ba/F3 cells (IL-3 dependent murine pro-B cell line); experiment: Proliferation assay (MTT), parental Ba/F3 cells; assay type: cell-based; settings: Mus musculus, 48 h, drug concentrations 0.005-10 μM, read-out: BaF3
Method: Interleukin-3 (IL-3) dependent murine pro-B cell line, Ba/F3, and murine myeloid precursor cell line, 32D, were maintained in RPMI-1640 medium supplemented with L-Glutamine, 10% FBS and 10 U/ml recombinant murine IL-3 (Roche). Mo7e human megakarioblastic cell line was grown in RPMI-1640 medium supplemented with L-Glutamine, 20% FBS and 5 ng/ml recombinant human granulocyte macrophage cell stimulating factor (GM-CSF) (R&D Systems) or 200 ng/ml stem cell factor (SCF) (Biosource).
(§1) Cells (0.3-0.6×10^6/ml) were plated in duplicate or triplicate in 96-well plates containing increasing drug concentrations (0.005-10 μM). After incubation at 37° C. in 5% CO2 for 48 h, the effect of the compounds on cell viability was determined by MTT (Promega) colorimetric dye reduction method. Inhibition of cell proliferation was calculated as a percentage of growth of DMSO treated cells, and IC50 values were determined with Microsoft Excel XLfit3.

[2] = target: Bcr-abl (Ba/F3.p210 cells) (Homo sapiens, UniProt P00519); experiment: Proliferation assay (MTT), wild type Bcr-abl expressing Ba/F3 cells; assay type: cell-based, murine; settings: 48 h, drug concentrations 0.005-10 μM
Text: (§2) Wild type Bcr-abl expressing 32D (32D.p210) and Ba/F3 (Ba/F3.p210) cells, and mutant Bcr-abl expressing cell lines Ba/F3.p210^G250E, Ba/F3.p210^E255V, Ba/F3.p210^T315I, Ba/F3.p210^F317L and Ba/F3.p210^M351T, as well as Ba/F3 cells transformed with Flt-3-ITD kinase. Additional assays included Ba/F3 cells expressing the fusion protein kinases TEL-PDGFRβ, TEL-JAK1, NPM-ALK, TEL-cKit, Tel-Bmx, Tel-FGR3, Tel-Lck and Ba/F3.TPR-met cells. All the above cell lines were maintained in RPMI-1640 medium with L-Glutamine, 10% FBS and 1 mg/ml geneticin (Gibco).
as §1

[3] = target: Bcr-abl T315I (Ba/F3.p210^T315I cells) (Homo sapiens, UniProt P00519, T315I, cells depend on it); experiment: Proliferation assay (MTT), T315I mutant Bcr-abl expressing Ba/F3 cells; assay type: cell-based, murine; settings: 48 h, drug concentrations 0.005-10 μM
Text: as §2, §1

SMILES | IC50 [1] | IC50 [2] | IC50 [3]
CCNC(=O)CCn1ccc2c(Nc3ccc(OC(F)(F)F)cc3)ncnc21 | > 10 µM | 2.42 µM | 9.29 µM
CCNNC(=O)c1ccc2c(Nc3ccc(OC(F)(F)F)cc3)ncnc2c1 | 6.51 µM | 1.88 µM | 6.3 µM
CN1CCC(N(C)C(=O)c2ccc3c(Nc4ccc(OC(F)(F)F)cc4)ncnc3c2)CC1 | 5.99 µM | 0.689 µM | 5 µM
Cn1c(CO)cc2c(Nc3ccc(OC(F)(F)F)cc3)ncnc21 | > 10 µM | 0.245 µM | > 10 µM
FC(F)(F)Oc1ccc(Nc2ncnc3c2ccn3CCN2CCOCC2)cc1 | > 10 µM | 0.38 µM | 4.27 µM
Cn1c(C(=O)N2CCCC(C(N)=O)C2)cc2c(Nc3ccc(OC(F)(F)F)cc3)ncnc21 (stereo not drawn) | > 10 µM | 1.98 µM | > 10 µM
O=C(CCn1ccc2c(Nc3ccc(OC(F)(F)F)cc3)ncnc21)NCCN1CCOCC1 | > 10 µM | 1.06 µM | 3.14 µM
CCN(CC)Cc1ccc2c(Nc3ccc(OC(F)(F)F)cc3)ncnc2c1 | > 10 µM | 2.04 µM | > 10 µM
O=C(c1ccc2c(Nc3ccc(OC(F)(F)F)cc3)ncnc2c1)N1CCC2(CC1)C(=O)NCN2c1ccccc1 | 6.89 µM | 1.48 µM | 8.32 µM
CCN(CC)C(=O)c1ccc2c(Nc3ccc(OC(F)(F)F)cc3)ncnc2c1 | > 10 µM | 0.742 µM | 3.17 µM
COC(=O)c1ccc2c(Nc3ccc(OC(F)(F)F)cc3)ncnc2c1 | 6.62 µM | 0.214 µM | 1.91 µM
O=C(c1ccc2c(Nc3ccc(OC(F)(F)F)cc3)ncnc2c1)N1CCC(O)C1 (stereo not drawn) | > 10 µM | 1.17 µM | > 10 µM
CCOC(=O)C1CCCN(C(=O)c2ccc3c(Nc4ccc(OC(F)(F)F)cc4)ncnc3c2)C1 (stereo not drawn) | 8.84 µM | 5.55 µM | > 10 µM
CC(C)(C)S(=O)(=O)NC(=O)c1ccc2c(Nc3ccc(OC(F)(F)F)cc3)ncnc2c1 | > 10 µM | > 10 µM | > 10 µM
CCOC(=O)c1cc2c(Nc3ccc(OC(F)(F)F)cc3)ncnc2n1C | > 10 µM | 1.5 µM | > 10 µM
O=C(c1ccc2c(Nc3ccc(OC(F)(F)F)cc3)ncnc2c1)N1CCCC1CO (stereo not drawn) | > 10 µM | 1.65 µM | > 10 µM
CN(CCO)C(=O)c1ccc2c(Nc3ccc(OC(F)(F)F)cc3)ncnc2c1 | > 10 µM | 2.66 µM | > 10 µM
Cc1ccc(S(=O)(=O)NC(=O)c2ccc3c(Nc4ccc(OC(F)(F)F)cc4)ncnc3c2)cc1 | > 10 µM | > 10 µM | > 10 µM
Cn1c(C(=O)NC(=N)N)cc2c(Nc3ccc(OC(F)(F)F)cc3)ncnc21 | > 10 µM | > 10 µM | > 10 µM
CCN(CC)CCCC(C)NC(=O)c1cc2c(Nc3ccc(OC(F)(F)F)cc3)ncnc2n1C (stereo not drawn) | 4.12 µM | 1.18 µM | 4 µM
CNCCN(C)C(=O)c1ccc2c(Nc3ccc(OC(F)(F)F)cc3)ncnc2c1 | > 10 µM | 5.98 µM | > 10 µM
CC1CN(C(=O)c2ccc3c(Nc4ccc(OC(F)(F)F)cc4)ncnc3c2)CC(C)N1 (stereo not drawn) | 7.62 µM | 2.14 µM | > 10 µM
FC(F)(F)Oc1ccc(Nc2ncnc3[nH]ccc23)cc1 | > 10 µM | > 10 µM | > 10 µM
NC(=O)C1CCCN(C(=O)c2ccc3c(Nc4ccc(OC(F)(F)F)cc4)ncnc3c2)C1 (stereo not drawn) | > 10 µM | 3.09 µM | > 10 µM
OCc1ccc2c(Nc3ccc(OC(F)(F)F)cc3)ncnc2c1 | > 10 µM | 0.508 µM | > 10 µM
CC(C)C(CCO)NC(=O)CCn1ccc2c(Nc3ccc(OC(F)(F)F)cc3)ncnc21 (stereo not drawn) | > 10 µM | 0.86 µM | 2.07 µM
O=C(c1ccoc1)N1CCN(C(=O)c2ccc3c(Nc4ccc(OC(F)(F)F)cc4)ncnc3c2)CC1 | > 10 µM | 2.04 µM | 3.9 µM
